The text below walks through data of publication PMC8539346, “Synthesis and Evaluation of a Dimeric RGD Peptide as a Preliminary Study for Radiotheranostics with Radiohalogens” (Molecules, 2021).

Like-named read-outs stand apart in the source and are kept apart here.

As a reminder, the IC50 is the concentration needed to halve the response being measured.

The target in data set [1] is T1, αvβ3 integrin (Homo sapiens, UniProt P05106+P06756).
T1 construct: host or cells: U-87 MG glioblastoma cells
Briefly: αvβ3 integrin competitive binding assay with U-87 MG cells, radioligand [^125I]c[RGDy(3-I)V]. The following applies: competitive inhibition of [^125I]c[RGDy(3-I)V] binding, mean ± SD for three independent experiments. On the procedure:
The affinity of 6 and E[c(RGDfK)]2, a dimer RGD peptide without iodine, for αvβ3 integrin was determined via a competitive binding assay with U-87 MG cells. Binding of the radioligand [^125I]c[RGDy(3-I)V] to αvβ3 integrin was inhibited by 6 and E[c(RGDfK)]2 in a concentration-dependent manner.
Binding affinities of synthesized peptides E[c(RGDfK)]2 and 6 for αvβ3 integrin were evaluated by competitive inhibition between the peptides and [^125I]c[RGDy(3-I)V], which was prepared by Fmoc solid-phase synthesis and following ^125I-labeling with chloramine-T method, to αvβ3 integrin according to a previously reported procedure. The peptides’ half maximal inhibitory concentration (IC50) values were calculated by curve fitting with nonlinear regression using GraphPad Prism 8.4.3 (GraphPad Software Inc., San Diego, CA, USA). Each data point is the average of four determinations, and IC50 values were expressed as mean ± standard deviation (SD) from three independent experiments.
Figure 2 αvβ3 Integrin binding assay. Representative displacement curves of the competitive binding of [^125I]c[RGDy(3-I)V] to αvβ3 integrin on U-87 MG cells with E[c(RGDfK)]2 and 6. Error bars represent SD.

Data set [2] has as its system U-87 MG tumor bearing mice. The note with it: mouse. On the procedure: A comparison of the biodistribution experiments in U-87 MG tumor mice between [^125I]6 and [^125I]c[RGDf(4-I)K] is shown in Figure 3 and Table S1. [^125I]6 was highly accumulated in the tumor based on the results of the in vitro assay. […] (2.93 ± 0.08% ID/g). The accumulation of [^125I]6 in the liver and intestines also tended to be higher than that of [^125I]c[RGDf(4-I)K]. Meanwhile, it is known that the radioactive accumulation in the thyroid gland and stomach is an index of deiodination of radioiodine labeled probes.
Experiments with animals were conducted in strict accordance with the Guidelines for the Care and Use of Laboratory Animals of Kanazawa University. The experimental protocols were approved by the Committee on Animal Experimentation of Kanazawa University. The animals were housed with free access to food and water at 23 °C with a 12 h alternating light/dark schedule. We used a U-87 MG cell line because it was reported that the U-87 MG highly expresses αvβ3 integrin [26]. […] The radioactivity counts of ^125I was determined with an auto-well gamma counter (ARC-7010, Hitachi, Ltd., Tokyo, Japan) and corrected for background radiation and physical decay during counting. […]
Table S1. Biodistribution of radioactivity after intravenous injection of […]
Expressed as % injected dose per gram. […]
‡ Expressed as % injected dose.
Significance was determined by paired Student’s t test. […]

Data set [3] can be described thus: In vitro stability in PBS(−). The data set is classed as physicochemical. The note with it: PBS(−) pH 7.4, 37 °C, 24 h, 37 kBq tracer in 100 µL, RP-HPLC; mean ± SD for three samples. Here is the method: An in vitro stability experiment of [^125I]6 in PBS(−) (pH 7.4) solution was performed. After incubation at 37 °C for 24 h, 90.8 ± 0.7% (mean ± SD for three samples) of its radioactivity remained intact.
To evaluate the stability of [^125I]6 in PBS(−), 10 µL of each tracer (37 kBq) was added to 90 µL of PBS(−) (pH 7.4), and the solutions were incubated at 37 °C for 24 h. After incubation, the samples were drawn, and the radioactivity was analyzed by RP-HPLC.

Data set [4] is classed as physicochemical. Here is the method: (§1) An experimental Log p value of [^125I]6 was −2.33 ± 0.04. The value was higher than that of the monomeric radioiodine-labeled RGD peptide [^125I]c[RGDf(4-I)K] (−3.04 ± 0.46) from our previous study.
The partition coefficient of [^125I]6 was measured as described previously. The radioactivity in each phase was measured with an auto-well gamma counter. The partition coefficient was determined by calculating the ratio of 1-octanol to the buffer and was expressed as a common logarithm (log P).

The conditions of data set [5]: cited from earlier work.
Excerpt: as §1

Data set [6] concerns the target T1, αvβ3 integrin. The following applies: monomer RGD peptide; cited from earlier work. Here is the method:
The binding affinity of 6 for αvβ3 integrin (IC50: 1.2 ± 0.5 nM) was higher than that of c[RGDf(4-I)K] […] It was reported that IC50 values of dimeric RGD peptides in the αvβ3 integrin competitive binding assay were an order lower than those of original monomeric RGD peptides. Thus, the IC50 value of dimerizing peptide 6 was consistent with those described in previous studies.

For the compound `N=C(N)NCCC[C@@H]1NC(=O)[C@H](CCCCNC(=O)CC[C@H](N)C(=O)NCCCC[C@@H]2NC(=O)[C@@H](Cc3ccc(I)cc3)NC(=O)[C@H](CC(=O)O)NC(=O)CNC(=O)[C@H](CCCNC(=N)N)NC2=O)NC(=O)[C@@H](Cc2ccccc2)NC(=O)[C@H](CC(=O)O)NC(=O)CNC1=O` [Compound 6, E[c(RGDfK)]{c[RGDf(4-I)K]}], on αvβ3 integrin [1], the IC50 was 1.2 ± 0.5 nM.

Take “E[c(RGDfK)]{[^125I]c[RGDf(4-I)K]}2 [[^125I]6]”: the “in vivo deiodination (radioactivity in neck containing thyroid glands and stomach)” value in data set [2] is “hardly occurred”. Moreover, the radioactivity remained intact in data set [3] is 90.8 ± 0.7%. Besides, the “Log p (partition coefficient)” value in data set [4] was −2.33 ± 0.04. Regarding [^125I]c[RGDf(4-I)K], the “Log p (partition coefficient)” value in data set [5] is −3.04 ± 0.46. For the compound c[RGDf(4-I)K], in the data set with αvβ3 integrin [6], the IC50 is 23.2 ± 17.2 nM.
